In patent US10703733B2, “MCL-1 inhibitors” (Gilead Sciences, Inc., priority 2018, dated 2020):
Where two headings read alike, the source gives them in different places.

How the values were obtained:
[1] = target: MCL-1/Bim interaction (recombinant human MCL-1 protein, residues 171-327; biotinylated human Bim peptide, residues 51-76) (Homo sapiens (Human), UniProt Q07820); experiment: MCL-1/Bim Binding AlphaLISA Assay; settings: 0.0625 nM 6xHis-Mcl-1 (171-327), 0.0625 nM biotinylated-Bim peptide
Outline: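 Protein 0.0625 nM + cpd, 1 h; add biotin-Bim 0.0625 nM, 2 h; acceptor beads 1 h; donor beads 1 h; AlphaScreen read. Buffer 20 mM Hepes pH 7.5, 150 mM NaCl, 1 mM DTT.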

[2] = tested on: SKBR3 cells; experiment: SKBR3 Cell Viability Assay (CellTiter Glo); format: cell-based; settings: CellTiter Glo luminescence, read-out: MCL-1 CV SKBR3 EC50
Outline: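 Viability read as CellTiter Glo luminescence after 72 h of compound exposure at 37° C./5% CO2, using 6,000 SKBR3 cells per well in McCoy 5A with 10% FBS. Percent inhibition scaled between DMSO wells and 10 μM puromycin wells.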

Sequence of MCL-1/Bim interaction (recombinant human MCL-1 protein, residues 171-327; biotinylated human Bim peptide, residues 51-76) (Q07820 171-327): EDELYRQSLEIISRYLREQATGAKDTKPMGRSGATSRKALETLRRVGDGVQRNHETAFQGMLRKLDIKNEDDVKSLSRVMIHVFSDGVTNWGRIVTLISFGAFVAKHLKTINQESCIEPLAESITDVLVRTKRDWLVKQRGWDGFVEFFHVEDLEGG

Row | Compound | IC50 [1] [nM] | EC50 ([2]; Homo sapiens, SK-BR-3, 72 h) [nM] | EC50 ([2]; 72 hours) [nM]
1 | CO[C@H]1/C=C/C[C@H](C)C[S@@](=O)(NC(=O)N[C@@H]2CC2(F)F)=NC(=O)c2ccc3c(c2)N(C[C@@H]2CC[C@H]21)C[C@@]1(CCCc2cc(Cl)ccc21)CO3 [Example 440] | 0.051 | 284 | –
2 | CO[C@H]1/C=C/CCC[S@@](=O)(NC(=O)CCn2cccn2)=NC(=O)c2ccc3c(c2)N(C[C@@H]2CC[C@H]21)C[C@@]1(CCCc2cc(Cl)ccc21)CO3 [Example 39] | 0.1 | 262 | –
3 | CO[C@H]1/C=C/C[C@H](C)C[S@@](=O)(NC(=O)[C@H]2C[C@@H](C(C)(C)O)C2)=NC(=O)c2ccc3c(c2)N(C[C@@H]2CC[C@H]21)C[C@@]1(CCCc2cc(Cl)ccc21)CO3 [Example 178] | 0.141 | 144 | –
4 | COc1c(C(=O)N[S@@]2(=O)=NC(=O)c3ccc4c(c3)N(C[C@@H]3CC[C@H]3[C@@H](OC)/C=C/C[C@H](C)C2)C[C@@]2(CCCc3cc(Cl)ccc32)CO4)cn2c1C[C@H](OC)C2 [Example 451] | 0.52 | 161 | –
5 | CO[C@H]1/C=C/C[C@H](C)C[S@@](=O)(NC(=O)c2cc(C)sn2)=NC(=O)c2ccc3c(c2)N(C[C@@H]2CC[C@H]21)C[C@@]1(CCCc2cc(Cl)ccc21)CO3 [Example 444] | 0.101 | 172 | –
6 | CO[C@H]1/C=C/C[C@H](C)C[S@@](=O)(NC(=O)c2cc3c(s2)CCOC3)=NC(=O)c2ccc3c(c2)N(C[C@@H]2CC[C@H]21)C[C@@]1(CCCc2cc(Cl)ccc21)CO3 [Example 429] | 0.129 | 261 | –
7 | CO[C@H]1CCN(C(=O)N[S@@]2(=O)=NC(=O)c3ccc4c(c3)N(C[C@@H]3CC[C@H]3[C@@H](OC)/C=C/C[C@H](C)C2)C[C@@]2(CCCc3cc(Cl)ccc32)CO4)C1 [Example 347] | 0.084 | 79.8 | –
8 | CO[C@H]1/C=C/C[C@H](C)C[S@@](=O)(NC(=O)N[C@@H]2C[C@H]2C2CCOCC2)=NC(=O)c2ccc3c(c2)N(C[C@@H]2CC[C@H]21)C[C@@]1(CCCc2cc(Cl)ccc21)CO3 [Example 181] | 0.146 | 37.9 | –
9 | CCn1nccc1CCC(=O)N[S@@]1(=O)=NC(=O)c2ccc3c(c2)N(C[C@@H]2CC[C@H]2[C@@H](OC)/C=C/CCC1)C[C@@]1(CCCc2cc(Cl)ccc21)CO3 [Example 45] | 0.1 | 191 | –
10 | CO[C@H]1/C=C/C[C@H](C)C[S@@](=O)(NC(=O)[C@H]2C[C@@](C)(O)C2)=NC(=O)c2ccc3c(c2)N(C[C@@H]2CC[C@H]21)C[C@@]1(CCCc2cc(Cl)ccc21)CO3 [Example 165] | 0.035 | 45.5 | –
11 | CO[C@H]1/C=C/C[C@H](C)[C@@H](C)[S@@](=O)(NC(=O)c2cc3n(c2)C[C@H](C)OC3)=NC(=O)c2ccc3c(c2)N(C[C@@H]2CC[C@H]21)C[C@@]1(CCCc2cc(Cl)ccc21)CO3 [Example 218] | 0.345 | 85.5 | –
12 | CO[C@H]1/C=C/C[C@H](C)C[S@@](=O)(NC(=O)c2coc(C)c2)=NC(=O)c2ccc3c(c2)N(C[C@@H]2CC[C@H]21)C[C@@]1(CCCc2cc(Cl)ccc21)CO3 [Example 204] | 0.048 | 136 | –
13 | COc1nn(C)cc1C(=O)N[S@@]1(=O)=NC(=O)c2ccc3c(c2)N(C[C@@H]2CC[C@H]2[C@@H](OC(=O)[C@@H](N)C(C)C)/C=C/C[C@H](C)[C@H]1C)C[C@@]1(CCCc2cc(Cl)ccc21)CO3 [Example 254] | 0.126 | 155 | –
14 | CO[C@H]1/C=C/C[C@H](C)C[S@@](=O)(NC(=O)N[C@@H]2CC[C@H]2OC)=NC(=O)c2ccc3c(c2)N(C[C@@H]2CC[C@H]21)C[C@@]1(CCCc2cc(Cl)ccc21)CO3 [Example 179] | 0.102 | 82.5 | –
15 | CO[C@H]1/C=C/C[C@H](C)C[S@@](=O)(NC(=O)N[C@H]2C[C@@H]2CO)=NC(=O)c2ccc3c(c2)N(C[C@@H]2CC[C@H]21)C[C@@]1(CCCc2cc(Cl)ccc21)CO3 [Example 171] | 0.033 | 130 | –
16 | CO[C@H]1/C=C/C[C@H](C)C[S@@](=O)(NC(=O)C2CC(O)(C(F)(F)F)C2)=NC(=O)c2ccc3c(c2)N(C[C@@H]2CC[C@H]21)C[C@@]1(CCCc2cc(Cl)ccc21)CO3 (stereo partly drawn) [Example 198] | 0.043 | 104 | –
17 | CO[C@H]1/C=C/C[C@H](C)C[S@@](=O)(NC(=O)c2cnoc2)=NC(=O)c2ccc3c(c2)N(C[C@@H]2CC[C@H]21)C[C@@]1(CCCc2cc(Cl)ccc21)CO3 [Example 409] | 0.147 | 297 | –

Row | Compound | IC50 [1] [nM] | EC50 ([2]; Homo sapiens, SK-BR-3, 72 h) [nM] | EC50 ([2]; 72 hours) [nM]
18 | CO[C@H]1/C=C/C[C@H](C)C[S@@](=O)(NC(=O)N2CCC(C(F)F)CC2)=NC(=O)c2ccc3c(c2)N(C[C@@H]2CC[C@H]21)C[C@@]1(CCCc2cc(Cl)ccc21)CO3 [Example 258] | 0.117 | 195 | –
19 | CO[C@H]1/C=C/C[C@H](C)C[S@@](=O)(NC(=O)[C@@]23COCC2C3)=NC(=O)c2ccc3c(c2)N(C[C@@H]2CC[C@H]21)C[C@@]1(CCCc2cc(Cl)ccc21)CO3 (stereo partly drawn) [Example 446] | 0.149 | 176 | –
20 | CO[C@H]1/C=C/C[C@H](C)C[S@@](=O)(NC(=O)c2cnn(C3CCC3)c2)=NC(=O)c2ccc3c(c2)N(C[C@@H]2CC[C@H]21)C[C@@]1(CCCc2cc(Cl)ccc21)CO3 [Example 176] | 0.138 | 79.3 | –
21 | CCC(=O)N[S@]1(=O)=NC(=O)c2ccc3c(c2)N(C[C@@H]2CC[C@H]2[C@@H](OC)CCCCC1)C[C@@]1(CCCc2cc(Cl)ccc21)CO3 [Example 17] | 11.3 | – | 10000
22 | COC1CCn2cc(C(=O)N[S@@]3(=O)=NC(=O)c4ccc5c(c4)N(C[C@@H]4CC[C@H]4[C@@H](OC)/C=C/C[C@H](C)C3)C[C@@]3(CCCc4cc(Cl)ccc43)CO5)cc2C1 (stereo partly drawn) [Example 175] | 0.14 | 33.9 | –
23 | CO[C@H]1/C=C/C[C@H](C)C[S@@](=O)(NC(=O)N[C@H]2C[C@@]2(C)OC)=NC(=O)c2ccc3c(c2)N(C[C@@H]2CC[C@H]21)C[C@@]1(CCCc2cc(Cl)ccc21)CO3 (single isomer, unassigned) [Example 313] | 0.064 | 94.5 | –
24 | CO[C@H]1/C=C/CCC[S@@](=O)(NC(=O)CCc2cnn(C)n2)=NC(=O)c2ccc3c(c2)N(C[C@@H]2CC[C@H]21)C[C@@]1(CCCc2cc(Cl)ccc21)CO3 [Example 46] | 0.1 | 512 | –
25 | CNC1CN(C(=O)N[S@@]2(=O)=NC(=O)c3ccc4c(c3)N(C[C@@H]3CC[C@H]3[C@@H](OC)/C=C/C[C@H](C)C2)C[C@@]2(CCCc3cc(Cl)ccc32)CO4)C1 [Example 294] | 0.129 | 260 | –
26 | COCC(=O)NS1(=O)=NC(=O)c2ccc3c(c2)N(C[C@@H]2CC[C@H]2[C@@H](OC)/C=C/CCC1)C[C@@]1(CCCc2cc(Cl)ccc21)CO3 (single isomer, unassigned) [Example 7] | 1.2 | – | 4800
27 | CO[C@H]1/C=C/CCC[S@@](=O)(NC(=O)Cc2ncccn2)=NC(=O)c2ccc3c(c2)N(C[C@@H]2CC[C@H]21)C[C@@]1(CCCc2cc(Cl)ccc21)CO3 [Example 30] | 0.6 | 1840 | –
28 | CO[C@H]1/C=C/CCC[S@@](=O)(NC(=O)CCc2ccc(Cl)cc2)=NC(=O)c2ccc3c(c2)N(C[C@@H]2CC[C@H]21)C[C@@]1(CCCc2cc(Cl)ccc21)CO3 [Example 90] | 0.5 | 4560 | –
29 | CO[C@H]1/C=C/C[C@H](C)C[S@@](=O)(NC(=O)c2cn(C)nc2N)=NC(=O)c2ccc3c(c2)N(C[C@@H]2CC[C@H]21)C[C@@]1(CCCc2cc(Cl)ccc21)CO3 [Example 173] | 0.087 | 67.9 | –
30 | COc1nnccc1C(=O)N[S@@]1(=O)=NC(=O)c2ccc3c(c2)N(C[C@@H]2CC[C@H]2[C@@H](OC)/C=C/C[C@H](C)C1)C[C@@]1(CCCc2cc(Cl)ccc21)CO3 [Example 458] | 0.079 | 376 | –
31 | CO[C@H]1/C=C/C[C@H](C)C[S@@](=O)(NC(=O)N[C@H]2C[C@H](O)C2)=NC(=O)c2ccc3c(c2)N(C[C@@H]2CC[C@H]21)C[C@@]1(CCCc2cc(Cl)ccc21)CO3 [Example 452] | 0.045 | 282 | –
32 | CO[C@H]1/C=C/CCC[S@@](=O)(NC(=O)C2CC2)=NC(=O)c2ccc3c(c2)N(C[C@@H]2CC[C@H]21)C[C@@]1(CCCc2cc(Cl)ccc21)CO3 [Example 27] | 1.6 | 2080 | –
33 | CO[C@H]1/C=C/C[C@H](C)C[S@@](=O)(NC(=O)N2CC(O)C2)=NC(=O)c2ccc3c(c2)N(C[C@@H]2CC[C@H]21)C[C@@]1(CCCc2cc(Cl)ccc21)CO3 [Example 289] | 0.053 | 588 | –
